According to patent US11884676B2, “Substituted pyrimido[1,2-b]pyridazines as positive allosteric modulators of the muscarinic acetylcholine receptor M4” (Vanderbilt University, priority 2020, dated 2024):

Target: T1, Human M4 (Homo sapiens, UniProt P08173)
T1 construct: expressed in transfected cells
T1 sequence (P08173 1-479): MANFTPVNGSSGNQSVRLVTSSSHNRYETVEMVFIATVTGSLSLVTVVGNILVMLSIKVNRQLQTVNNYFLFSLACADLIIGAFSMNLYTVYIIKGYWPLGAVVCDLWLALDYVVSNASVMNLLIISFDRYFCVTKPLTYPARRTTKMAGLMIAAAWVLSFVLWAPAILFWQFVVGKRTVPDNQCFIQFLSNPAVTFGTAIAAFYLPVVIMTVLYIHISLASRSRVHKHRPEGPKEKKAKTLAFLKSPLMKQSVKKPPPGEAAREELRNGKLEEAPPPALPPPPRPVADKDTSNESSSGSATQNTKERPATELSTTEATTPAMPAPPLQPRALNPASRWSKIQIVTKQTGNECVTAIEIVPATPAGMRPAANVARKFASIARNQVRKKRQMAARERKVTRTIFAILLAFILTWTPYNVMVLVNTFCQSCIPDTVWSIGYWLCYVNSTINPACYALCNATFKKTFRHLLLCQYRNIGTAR
Assay: mAChR M4 cell-based functional assay (calcium flux, PAM mode)
Settings: hM4-Gqi5 CHO-K1 cells; for Emax at 30 µM: CHO-K1, % ACh maximum at 30 μM; for EC50: concentration-dependent increase in the EC20 acetylcholine response
In short: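 CHO-K1 cells stably co-expressing human M4 and chimeric Gqi5, Fluo-4 loaded; compound added first (11-point, 1:3 CRC), then EC20 acetylcholine at 144 s and EC80 at 230 s. PAM activity read on FDSS as concentration-dependent increase of EC20 ACh calcium response; EC50 and Emax from four-parameter logistic fit.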

| Structure (SMILES) | Emax at 30 µM [%] | EC50 [nM] |
| --- | --- | --- |
| [2H]C1([2H])Oc2ccc(OC3CCN(c4nn5c(=O)cc(C(F)(F)F)nc5cc4C)CC3)cc2OC1([2H])[2H] [Compound 6, 7-(4-((2,3-Dihydrobenzo[b][1,4]dioxin-6-yl-2,2,3,3-d4)oxy)piperidin-1-yl)-8-methyl-2-(trifluoromethyl)-4H-pyrimido[1,2-b]pyridazin-4-one] | 91 | 16 |
| Cc1cc2nccc(=O)n2nc1N1CC[C@@H](Oc2ccc3c(c2)OCO3)[C@H](F)C1 [Compound 53, 7-((3R,4R)-4-(benzo[d][1,3]dioxol-5-yloxy)-3-fluoropiperidin-1-yl)-8-methyl-4H-pyrimido[1,2-b]pyridazin-4-one] | 86 | 160 |
| [2H]C1(Oc2ccc3c(c2)OCCO3)CCN(c2nn3c(=O)cc(C)nc3cc2C)CC1 [Compound 62, 7-(4-((2,3-dihydrobenzo[b][1,4]dioxin-6-yl)oxy)piperidin-1-yl-4-d)-2,8-dimethyl-4H-pyrimido[1,2-b]pyridazin-4-one] | 99 | 47 |
| [2H]C1(Oc2ccc3c(c2)OC([2H])([2H])C([2H])([2H])O3)CCN(c2nn3c(=O)cc(COC)nc3c(C)c2C)CC1 [Compound 110, 7-(4-((2,3-dihydrobenzo[b][1,4]dioxin-6-yl-2,2,3,3-d4)oxy)piperidin-1-yl-4-d)-2-(methoxymethyl)-8,9-dimethyl-4H-pyrimido[1,2-b]pyridazin-4-one] | 80 | 44 |
| Cc1c(N2CCC(Oc3ccc(Cl)cc3)CC2)nn2c(=O)cc(C(F)F)nc2c1C [Compound 79, 7-(4-(4-chlorophenoxy)piperidin-1-yl)-2-(difluoromethyl)-8,9-dimethyl-4H-pyrimido[1,2-b]pyridazin-4-one] | 76 | 358 |
| [2H]C1([2H])Oc2ccc(OC3CCN(c4nn5c(=O)c(Cl)c(C)nc5cc4C)CC3)cc2OC1([2H])[2H] [Compound 17, 3-Chloro-7-(4-((2,3-dihydrobenzo[b][1,4]dioxin-6-yl-2,2,3,3-d4)oxy)piperidin-1-yl)-2,8-dimethyl-4H-pyrimido[1,2-b]pyridazin-4-one] | 91 | 12 |
| [2H]C1(Oc2ccc3c(c2)OCO3)CCN(c2nn3c(=O)cc(C(F)(F)F)nc3cc2C)CC1 [Compound 63, 7-(4-(benzo[d][1,3]dioxol-5-yloxy)piperidin-1-yl-4-d)-8-methyl-2-(trifluoromethyl)-4H-pyrimido[1,2-b]pyridazin-4-one] | 102 | 342 |
| Cc1cc2nc(C)c(F)c(=O)n2nc1N1CC[C@H](Oc2ccc3c(c2)OCCO3)[C@@H](F)C1 [Compound 37, 7-((3S,4S)-4-((2,3-dihydrobenzo[b][1,4]dioxin-6-yl)oxy)-3-fluoropiperidin-1-yl)-3-fluoro-2,8-dimethyl-4H-pyrimido[1,2-b]pyridazin-4-one] | 105 | 134 |
| Cc1ccc(OC2CCN(c3nn4c(=O)cc(C(F)F)nc4c(C)c3C)CC2)cc1 [Compound 85, 2-(difluoromethyl)-8,9-dimethyl-7-(4-(p-tolyloxy)piperidin-1-yl)-4H-pyrimido[1,2-b]pyridazin-4-one] | 101 | 385 |
| [2H]C1([2H])Oc2ccc(OC3CCN(c4nn5c(=O)c(F)c(C)nc5c(C)c4C)CC3)cc2OC1([2H])[2H] [Compound 16, 7-(4-((2,3-Dihydrobenzo[b][1,4]dioxin-6-yl-2,2,3,3-d4)oxy)piperidin-1-yl)-3-fluoro-2,8,9-trimethyl-4H-pyrimido[1,2-b]pyridazin-4-one] | 117 | 92 |
| [2H]C1([2H])Oc2cc(OC3CCN(c4nn5c(=O)ccnc5cc4C)CC3)cc(C)c2OC1([2H])[2H] [Compound 28, 8-methyl-7-(4-((8-methyl-2,3-dihydrobenzo[b][1,4]dioxin-6-yl-2,2,3,3-d4)oxy)piperidin-1-yl)-4H-pyrimido[1,2-b]pyridazin-4-one] | 93 | 288 |
| [2H]C1([2H])Oc2ccc(OC3CCN(c4nn5c(=O)cc(CC)nc5c(C)c4C)CC3)cc2OC1([2H])[2H] [Compound 100, 7-(4-((2,3-dihydrobenzo[b][1,4]dioxin-6-yl-2,2,3,3-d4)oxy)piperidin-1-yl)-2-ethyl-8,9-dimethyl-4H-pyrimido[1,2-b]pyridazin-4-one] | 89 | 52 |
| Cc1c(N2CCC(Oc3ccc4c(c3)OCCO4)CC2)nn2c(=O)ccnc2c1C [Compound 71, 7-(4-((2,3-dihydrobenzo[b][1,4]dioxin-6-yl)oxy)piperidin-1-yl)-8,9-dimethyl-4H-pyrimido[1,2-b]pyridazin-4-one] | 95 | 21 |
| [2H]C1(Oc2ccc3c(c2)OCCCO3)CCN(c2nn3c(=O)cc(C)nc3cc2C)CC1 [Compound 59, 7-(4-((3,4-dihydro-2H-benzo[b][1,4]dioxepin-7-yl)oxy)piperidin-1-yl-4-d)-2,8-dimethyl-4H-pyrimido[1,2-b]pyridazin-4-one] | 85 | 59 |
| [2H]C1([2H])Oc2ccc(OC3CCN(c4nn5c(=O)cc(C)nc5cc4C)CC3)cc2OC1([2H])[2H] [Compound 3, 7-(4-((2,3-Dihydrobenzo[b][1,4]dioxin-6-yl-2,2,3,3-d4)oxy)piperidin-1-yl)-2,8-dimethyl-4H-pyrimido[1,2-b]pyridazin-4-one] | 86 | 30 |
| [2H]C1([2H])Oc2ccc(O[C@H]3CCN(c4nn5c(=O)cc(COC)nc5c(C)c4C)C[C@H]3F)cc2OC1([2H])[2H] [Compound 122, 7-((3R,4S)-4-((2,3-dihydrobenzo[b][1,4]dioxin-6-yl-2,2,3,3-d4)oxy)-3-fluoropiperidin-1-yl)-2-(methoxymethyl)-8,9-dimethyl-4H-pyrimido[1,2-b]pyridazin-4-one] | 111 | 94 |
| Cc1cc(=O)n2nc(N3CCC(Oc4ccc5c(c4)CCN(C)C5=O)CC3)c(C)cc2n1 [Compound 74, 2,8-dimethyl-7-(4-((2-methyl-1-oxo-1,2,3,4-tetrahydroisoquinolin-6-yl)oxy)piperidin-1-yl)-4H-pyrimido[1,2-b]pyridazin-4-one] | 84 | 2360 |
| [2H]C1([2H])Oc2ccc(O[C@H]3CCN(c4nn5c(=O)ccnc5c(C)c4C)[C@H](C)C3)cc2OC1([2H])[2H] [Compound 132, 7-((2R,4S)-4-((2,3-dihydrobenzo[b][1,4]dioxin-6-yl-2,2,3,3-d4)oxy)-2-methylpiperidin-1-yl)-8,9-dimethyl-4H-pyrimido[1,2-b]pyridazin-4-one] | 107 | 34 |
| Cc1cc2nc(C)c(F)c(=O)n2nc1N1CC[C@@H](Oc2ccc3c(c2)OCCO3)[C@H](F)C1 [Compound 36, 7-((3R,4R)-4-((2,3-dihydrobenzo[b][1,4]dioxin-6-yl)oxy)-3-fluoropiperidin-1-yl)-3-fluoro-2,8-dimethyl-4H-pyrimido[1,2-b]pyridazin-4-one] | 116 | 40 |
| [2H]C1(Oc2ccc3c(c2)OCCO3)CCN(c2nn3c(=O)ccnc3c(C)c2C)CC1 [Compound 70, 7-(4-((2,3-dihydrobenzo[b][1,4]dioxin-6-yl)oxy)piperidin-1-yl-4-d)-8,9-dimethyl-4H-pyrimido[1,2-b]pyridazin-4-one] | 96 | 16 |
| [2H]C1(Oc2ccc3c(c2)OC([2H])([2H])C([2H])([2H])O3)CCN(c2nn3c(=O)cc(COC)nc3cc2C)CC1 [Compound 109, 7-(4-((2,3-dihydrobenzo[b][1,4]dioxin-6-yl-2,2,3,3-d4)oxy)piperidin-1-yl-4-d)-2-(methoxymethyl)-8-methyl-4H-pyrimido[1,2-b]pyridazin-4-one] | 97 | 19 |
| COCc1ccc(OC2CCN(c3nn4c(=O)ccnc4cc3C)CC2)cn1 [Compound 76, 7-(4-((6-(methoxymethyl)pyridin-3-yl)oxy)piperidin-1-yl)-8-methyl-4H-pyrimido[1,2-b]pyridazin-4-one] | 60 | > 10000 |
| [2H]C1([2H])Oc2ccc(OC3CCN(c4nn5c(=O)cc(C(F)F)nc5cc4C)CC3)cc2OC1([2H])[2H] [Compound 8, 2-(Difluoromethyl)-7-(4-((2,3-dihydrobenzo[b][1,4]dioxin-6-yl-2,2,3,3-d4)oxy)piperidin-1-yl)-8-methyl-4H-pyrimido[1,2-b]pyridazin-4-one] | 76 | 19 |
| [2H]C1(Oc2ccc3c(c2)OC([2H])([2H])C([2H])([2H])O3)CCN(c2nn3c(=O)cc(CC4CCCC4)nc3c(C)c2C)CC1 [Compound 101, 2-(cyclopentylmethyl)-7-(4-((2,3-dihydrobenzo[b][1,4]dioxin-6-yl-2,2,3,3-d4)oxy)piperidin-1-yl-4-d)-8,9-dimethyl-4H-pyrimido[1,2-b]pyridazin-4-one] | 81 | 1470 |
| Cc1cc2nccc(=O)n2nc1N1CC[C@@H](Oc2ccc3c(c2)CCO3)[C@H](F)C1 [Compound 56, 7-((3R,4R)-4-((2,3-dihydrobenzofuran-5-yl)oxy)-3-fluoropiperidin-1-yl)-8-methyl-4H-pyrimido[1,2-b]pyridazin-4-one] | 80 | 206 |
